Experimental data taken from patent US20260137662A1, “CD11B AGONISTS FOR TREATMENT OF AUTOIMMUNE DISEASE” (Rush University Medical Center, priority 2022, published 2026).

Experiments:
[1] = system: IMQ-induced mouse model of lupus; experiment: IMQ-induced mouse model of lupus, LA1 co-treatment i.p.; format: in vivo, wild type C57BL/6 mice; settings: IMQ cream 8 weeks
Description: FIG. 8A illustrates an experimental timeline for the measurement of suPAR levels, albumin creatinine ratios (ACR), anti-dsDNA antibody levels, and spleen size in wild type mouse models treated with IMQ, LA1, or IMO and LA1 co-treatment.
FIG. 8B illustrates levels of biomarker suPAR in the blood and urine of wild type mice (WT), mice treated with IMQ, mice co-treated with IMQ and vehicle DMSO or mice co-treated with IMQ and LA1 (2 mg/kg i.p. daily). Each dot represents a unique sample. Bars show mean +/−SEM (n=5).
FIG. 8C illustrates the albumin creatinine ratios (ACR) in the blood and urine of wild type mice (WT), mice treated with IMQ, mice co-treated with IMQ and vehicle DMSO or mice co-treated with IMQ and LA1 (2 mg/kg i.p. daily). Each dot represents a unique sample. Bars show mean +/−SEM (n=5).
FIG. 8D illustrates levels of anti-dsDNA antibodies in the blood and urine of wild type mice (WT), mice treated with IMQ, mice co-treated with IMQ and vehicle DMSO, or mice co-treated with IMQ and LA1 (2 mg/kg i.p. daily). Each dot represents a unique sample. Bars show mean +/−SEM (n=5).
FIG. 8E illustrates spleen size (mm) and weight (g) of wild type mice (WT), mice treated with IMQ, mice co-treated with IMQ and vehicle DMSO, or mice co-treated with IMQ and LA1. Each dot represents a unique sample. Bars show mean +/−SEM (n=5).
To investigate efficacy of LA1 as a therapeutic for SLE and autoimmune diseases in vivo, an IMQ-induced mouse model of lupus (Yokogawa et al, 2014) was used. Imiquimod (IMQ), a known TLR7 stimulant, was used to induce disease in wild type mice. Briefly, wild type C57BL/6 mice (WT) were treated topically with IMQ cream (Aldara) over the course of 8 weeks, as shown in the timeline of FIG. 8A, a group was also co-treated intraperitoneally with LA1 or vehicle DMSO. Blood and urine were collected for analysis of inflammatory cytokines and proteinuria over the course of treatment. […] Additionally, spleen size and weight were recorded.

[2] = system: BMDMs from C57BL/6 mice expressing CD11b with a point mutation (KI); experiment: Biomarker secretion from IMQ-treated bone marrow derived macrophages of CD11b KI mice; format: cell-based; settings: KI cells (genetically activated CD11b), IMQ (20 ug/mL) and LA1 (20 uM) co-treatment, 4 hours
Description: (§1) FIG. 7A illustrates levels of biomarker IL-6 secretion in bone marrow derived macrophages (BMDMs) from C57BL/6 wild type (WT) mice, mice with global deletion of CD11b (KO), or C57BL/6 mice expressing CD11b with a point mutation (KI), the macrophages treated for 4 hours with vehicle DMSO (UT), LA1 (20 uM), IMQ (20 ug/mL), or IMQ and LA1 co-treatment. Bars show mean with SD (N=3) (*P<0.05, **P<0.01, ***P<0.001, ****P<0.0001).
as §1, with “7B” for “7A”, “IL-1b” for “IL-6”
as §1, with “7C” for “7A”, “suPAR” for “IL-6”
as §1, with “7D” for “7A”, “IFNb” for “IL-6”
(§2) Bone marrow derived macrophages (BMDMs) from C57BL/6 wild type mice (WT), mice with global deletion of CD11b (KO), and C57BL/6 mice expressing CD11b with a point mutation (KI), as described previously (Martinez et al., 2020) were used to evaluate the effect of pharmacologic activation of CD11b by LA1 or genetic activation of CD11b on TLR-pathway dependent biomarkers. BMDMs from WT, KO, and KI mice were left untreated, treated with LA1, treated with IMQ, or co-treated with LA1 and IMQ and levels of biomarkers IL-1b, suPAR, IL-6 and IFN-b were measured 4 hours after treatment.

[3] = system: BMDMs from mice with global deletion of CD11b (KO); experiment: Biomarker secretion from IMQ-treated bone marrow derived macrophages of CD11b KO mice; format: cell-based; settings: CD11b KO cells, IMQ (20 ug/mL) and LA1 (20 uM) co-treatment, 4 hours
Description: as §1
as §1, with “7B” for “7A”, “IL-1b” for “IL-6”
as §1, with “7C” for “7A”, “suPAR” for “IL-6”
as §1, with “7D” for “7A”, “IFNb” for “IL-6”
as §2

[4] = co-treated with LA1 2 mg/kg i.p. daily, vs IMQ

**Q.** What does the source list for `O=C(O)c1ccc(-c2ccc(/C=C3\SC(=S)N(Cc4ccccc4)C3=O)o2)cc1` [LA1, (Z)-4-(5-((3-benzyl-4-oxo-2-thioxothiazolidin-5-ylidene)methyl)furan-2-yl)benzoic acid]?
**A.** spleen size ([1]; co-treated with LA1): reduced; spleen weight ([1]; co-treated with LA1): reduced; albumin creatinine ratios (ACR) [1, 4]: significantly reduced; levels of anti-dsDNA antibodies [1, 4]: significantly reduced; levels of suPAR [1, 4]: significantly reduced; level of IFN-b in cell supernatant [2]: did not change basal levels; level of IL-1b in cell supernatant [2]: did not change basal levels; level of IL-6 in cell supernatant [2]: did not change basal levels; level of suPAR in cell supernatant [2]: did not change basal levels; level of IFN-b in cell supernatant [3]: no effect; level of IL-1b in cell supernatant [3]: no effect; level of IL-6 in cell supernatant [3]: no effect; level of suPAR in cell supernatant [3]: no effect
